Source: patent US11254667B2 (priority 2016, dated 2022)
In brackets after ≈: the same amount, converted by molar mass. Like-named read-outs stand apart in the source and are kept apart here.

Key:
physchem = conditions: pH 7.4, aqueous buffer, kinetic from dmso stock
MA9-NRas cells = test: NRAS IC50 (MA9-NRas cells); format: cell-based
in vivo = conditions: NRG/NRGS, mouse, ip, 30 mg/kg
[1] = Homo sapiens, read-out: NRAS IC50
[2] = Homo sapiens; read-out: NRAS IC50

SMILES | Stability (rat) [min] | solubility (physchem) [µg/mL] | IC50 (MA9-NRas cells; [1]) [µM] | further results
c1cc(NC2CNC2)nc(-c2cnc3ccccn23)c1 [Compound I-12, N-(azetidin-3-yl)-6-(imidazo[1,2-a]pyridin-3-yl)pyridin-2-amine] | >30.0 | > 39 |  | 
Clc1ccc2ncc(-c3cccc(NC4CCNC4)n3)n2c1 (stereo not drawn) [Compound I-16, 6-(6-chloroimidazo[1,2-a]pyridin-3-yl)-N-(pyrrolidin-3-yl)pyridin-2-amine] | 25.6 | > 46 | 1.76 | 
COc1cc2ncc(-c3cccc(NC4CCNC4)n3)n2cc1Cl (stereo not drawn) [Compound I-21, 6-(6-chloro-7-methoxyimidazo[1,2-a]pyridin-3-yl)-N-(pyrrolidin-3-yl)pyridin-2-amine] | 27 | 7.7 (≈ 22.4 µM) |  | 
COc1cc2ncc(-c3cccc(NC4CCNC4)n3)n2cc1-c1cccnc1 (stereo not drawn) [Compound I-22, 6-(7-methoxy-6-(pyridin-3-yl)imidazo[1,2-a]pyridin-3-yl)-N-(pyrrolidin-3-yl)pyridin-2-amine] |  | 29 (≈ 75 µM) |  | AUC(0-inf) (in vivo): 4850 ng·h/mL; Cmax (in vivo): 1540 ng/mL; Tmax (in vivo): 30 min; solubility kinetic (physchem): 29 µM (≈ 11.2 µg/mL)
COc1cc2ncc(-c3cccc(NC4CCNC4)n3)n2cc1-c1ccncc1 (stereo not drawn) [Compound I-23, 6-(7-methoxy-6-(pyridin-4-yl)imidazo[1,2-a]pyridin-3-yl)-N-(pyrrolidin-3-yl)pyridin-2-amine] | >30.0 | 11.6 (≈ 30 µM) | 1.83 | 
COc1cc2ncc(-c3cccc(NC4CCNC4)n3)n2cc1-c1c(C)n[nH]c1C (stereo not drawn) [Compound I-25, 6-(6-(3,5-dimethyl-1H-pyrazol-4-yl)-7-methoxyimidazo[1,2-a]pyridin-3-yl)-N-(pyrrolidin-3-yl)pyridin-2-amine] | >30.0 | > 60 |  | IC50 (MA9-NRas cells; [2]): 15.7 µM
COc1cc2ncc(-c3cccc(NC4CCNC4)n3)n2cc1-c1cnn(CCN2CCOCC2)c1 (stereo not drawn) [Compound I-26] | >30.0 | > 72 | 15.7 | 
COc1cc2ncc(-c3cccc(NC4CCNC4)n3)n2cc1-c1cc[nH]c1 (stereo not drawn) [Compound I-27, 6-(7-methoxy-6-(1H-pyrrol-3-yl)imidazo[1,2-a]pyridin-3-yl)-N-(pyrrolidin-3-yl)pyridin-2-amine] | >30.0 | 34.3 (≈ 91.6 µM) | 4.43 | 
COc1cc2ncc(-c3cccc(NC4CCNC4)n3)n2cc1-c1c(C)noc1C (stereo not drawn) [Compound I-28, 6-(6-(3,5-dimethylisoxazol-4-yl)-7-methoxyimidazo[1,2-a]pyridin-3-yl)-N-(pyrrolidin-3-yl)pyridin-2-amine] | 15.7 | > 60 |  | IC50 (MA9-NRas cells; [2]): 14.8 µM
COc1cc2ncc(-c3cccc(NC4CCCNC4)n3)n2cc1-c1cn[nH]c1 (stereo not drawn) [Compound I-29, 6-(7-methoxy-6-(1H-pyrazol-4-yl)imidazo[1,2-a]pyridin-3-yl)-N-(piperidin-3-yl)pyridin-2-amine] | 9.8 | 35.6 (≈ 91.4 µM) | 9.35 | 
COc1cc2ncc(-c3cccc(NC4CCNCC4)n3)n2cc1-c1cn[nH]c1 [Compound I-30] | 24.7 | 12.3 (≈ 31.6 µM) |  | 
COc1cc2ncc(-c3cccc(N(C)C4CCNC4)n3)n2cc1-c1cn[nH]c1 (stereo not drawn) [Compound I-31, 6-(7-methoxy-6-(1H-pyrazol-4-yl)imidazo[1,2-a]pyridin-3-yl)-N-methyl-N-(pyrrolidin-3-yl)pyridin-2-amine] | 11.5 | 14.1 (≈ 36.2 µM) |  | IC50 (MA9-NRas cells; [2]): 16.6 µM
COc1cc2ncc(-c3cccc(OC4CCNC4)n3)n2cc1-c1cn[nH]c1 (stereo not drawn) [Compound I-32, 7-methoxy-6-(1H-pyrazol-4-yl)-3-(6-(pyrrolidin-3-yloxy)pyridin-2-yl)imidazo[1,2-a]pyri-dine] | 7.7 | 8.2 (≈ 21.8 µM) | 3.72 | 
COc1cc2ncc(-c3nc(NC4CCNC4)c(F)cc3F)n2cc1-c1cn[nH]c1 (stereo not drawn) [Compound I-33, 3,5-difluoro-6-(7-methoxy-6-(1H-pyrazol-4-yl)imidazo[1,2-a]pyridin-3-yl)-N-(pyrrolidin-3-yl)pyridin-2-amine] | 9.3 | 3.9 (≈ 9.48 µM) | 29.8 | 
COc1cc2ncc(-c3cccc(NC4CCNC4)n3)n2cc1OC (stereo not drawn) [Compound I-36] | >30.0 | > 50 | 4.43 | 
COc1cc(-c2cn[nH]c2)cn2c(-c3cccc(NC4CCNC4)n3)cnc12 (stereo not drawn) [Compound I-37] | 2.3 | > 55 | 16.6 | 
COc1cc2ncc(-c3cccc(NC4CCNC4)n3)n2cc1-c1nnn[nH]1 (stereo not drawn) [Compound I-38] | >30.0 | > 56 | 0.002 | 
COc1cc2ncc(-c3cccc(NC4CCNC4)n3)n2cc1C#N (stereo not drawn) [Compound I-39] | 8.8 | 10.6 (≈ 31.7 µM) | 5.58 | 
Clc1cn2c(-c3cccc(NC4CCNC4)n3)cnc2cc1OCCN1CCOCC1 (stereo not drawn) [Compound I-40] | >30.0 | > 65 | 0.626 | 
c1cc(NC2CCNC2)nc(-c2cnc3cc(OCCN4CCOCC4)c(-c4cn[nH]c4)cn23)c1 (stereo not drawn) [Compound I-41, 6-(7-(2-morpholinoethoxy)-6-(1H-pyrazol-4-yl)imidazo[1,2-a]pyridin-3-yl)-N-(pyrrolidin-3-yl)pyridin-2-amine] | >30.0 | > 70 | 17.6 | 
COc1cc(Cl)cn2c(-c3cccc(NC4CNC4)n3)cnc12 [Compound I-42, N-(azetidin-3-yl)-6-(6-chloro-8-methoxyimidazo[1,2-a]pyridin-3-yl)pyridin-2-amine] |  | > 49 | 20.9 | Stability: >30 min
c1cc(N[C@H]2CCNC2)nc(-c2cnc3ccc(-c4cn[nH]c4)cn23)c1 [Compound I-44] |  | 42.6 (≈ 123 µM) |  | Stability: 6.7 min

SMILES | Stability (rat) [min] | solubility (physchem) [µg/mL] | IC50 (MA9-NRas cells; [1]) [µM] | further results
c1cc(NC2CNC2)nc(-c2cnc3ccc(-c4cn[nH]c4)cn23)c1 [Compound I-45] |  | > 49 | 4.29 | 
Cn1cc(-c2ccc3ncc(-c4cccc(NC5CNC5)n4)n3c2)cn1 [Compound I-46] | >30.0 | 43.1 (≈ 125 µM) | 16.6 | 
Fc1cc(F)c(-c2cnc3ccc(Cl)cn23)nc1NC1CNC1 [Compound I-47] | >30.0 | > 50 | 1.88 | 
Cc1ccc(-c2cnc3ccc(Cl)cn23)nc1NC1CNC1 [Compound I-48] | 11.8 | > 46 |  | 
Cc1ccc(NC2CNC2)nc1-c1cnc2ccc(Cl)cn12 [Compound I-49] | 26.2 | > 46 |  | 
COc1ccn2c(-c3cccc(NC4CNC4)n3)cnc2c1 [Compound I-50, N-(azetidin-3-yl)-6-(7-methoxyimidazo[1,2-a]pyridin-3-yl)pyridin-2-amine] | >30.0 | > 44 |  | 
CN(c1cccc(-c2cnc3ccc(Cl)cn23)n1)C1CCNCC1 [Compound I-51] |  | > 50 |  | Stability: 9.0 min
Brc1ccc2ncc(-c3cccc(NC4CNC4)n3)n2c1 [Compound I-52] | 19.8 | 41.8 (≈ 121 µM) |  | 
Clc1ccc2ncc(-c3cc(Br)cc(NC4CNC4)n3)n2c1 [Compound I-53] | >30.0 | 19.5 (≈ 51.5 µM) |  | 
c1cc(NC2CCNC2)nc(-c2cnc3ccc(-c4cn[nH]c4)cn23)c1 (stereo not drawn) [Compound I-54, 6-(6-(1H-pyrazol-4-yl)imidazo[1,2-a]pyridin-3-yl)-N-(pyrrolidin-3-yl)pyridin-2-amine] |  | > 51 |  | Stability: 7.6 min
Cc1cc(NC2CNC2)nc(-c2cnc3ccc(Cl)cn23)c1 [Compound I-55, N-(azetidin-3-yl)-6-(6-chloroimidazo[1,2-a]pyridin-3-yl)-4-methylpyridin-2-amine] |  | > 46 |  | 
CC(=O)N1CC(Nc2cccc(-c3cnc4ccc(Cl)cn34)n2)C1 [Compound I-57] | >30.0 | > 50 |  | 
O=C(c1ccccc1)N1CC(Nc2cccc(-c3cnc4ccc(Cl)cn34)n2)C1 [Compound I-58] | 8.0 | < 1 |  | 
N#CCC(=O)N1CC(Nc2cccc(-c3cnc4ccc(Cl)cn34)n2)C1 [Compound I-59] | >30.0 | 18.3 (≈ 49.9 µM) |  | 
N#Cc1ccc2ncc(-c3cccc(NC4CNC4)n3)n2c1 [Compound I-60, 3-(6-(azetidin-3-ylamino)pyridin-2-yl)imidazo[1,2-a]pyridine-6-carbonitrile] | 16.4 | > 43 |  | 
Cc1ccn2c(-c3cccc(NC4CNC4)n3)cnc2c1 [Compound I-61, N-(azetidin-3-yl)-6-(7-methylimidazo[1,2-a]pyridin-3-yl)pyridin-2-amine] | >30.0 | > 41 |  | 
Clc1cc2ncc(-c3cccc(NC4CNC4)n3)n2cc1Cl [Compound I-62] | >30.0 | 41.5 (≈ 124 µM) |  | 
Clc1ccn2c(-c3cccc(NC4CNC4)n3)cnc2c1 [Compound I-63, N-(azetidin-3-yl)-6-(7-chloroimidazo[1,2-a]pyridin-3-yl)pyridin-2-amine] |  | > 44 |  | 
CCN1CCN(c2ccc3ncc(-c4cccc(NC5CNC5)n4)n3c2)CC1 [Compound I-64] |  | > 56 |  | 
COc1cc(NC2CNC2)nc(-c2cnc3ccc(Cl)cn23)c1 [Compound I-67, N-(azetidin-3-yl)-6-(6-chloroimidazo[1,2-a]pyridin-3-yl)-4-methoxypyridin-2-amine] | >30.0 | > 49 |  | 
C#Cc1cn2c(-c3cccc(NC4CCNC4)n3)cnc2cc1OC (stereo not drawn) [Compound I-68, 6-(6-ethynyl-7-methoxyimidazo[1,2-a]pyridin-3-yl)-N-(pyrrolidin-3-yl)pyridin-2-amine] | 11.6 | > 49 |  | 
